According to patent US20250127801A1, “BRIDGED TRICYCLIC CARBAMOYLPYRIDONE COMPOUNDS AND USES THEREOF” (priority 2023, published 2025):
In brackets after ≈: the same amount, converted by molar mass. Read-outs that look alike come from different tables or passages of the source.

Assays:
in vitro = details: human; for CC50 at 5 days: uninfected MT-4 cells
HIV-1 (IIIB) = experiment: microbe, parasite or virus in culture; format: cell-based
physchem = details: 23 °C, thermodynamic from solid; for solubility thermodynamic: fassif; for solubility thermodynamic at 24 h: FaSSIF
[1] = Human immunodeficiency virus 1, IIIB, MT4, 120 h, read-out: MT4 EC50 (nM)
[2] = Human immunodeficiency virus 1, MT4, 120 h, HIV-1 (IIIB) replication in MT-4 cells, 5 days incubation, Cell Titer Glo, read-out: MT4 EC50

Row | Compound | EC50 (HIV-1 (IIIB); [2]) [nM] | solubility thermodynamic at 24 h (physchem) [µg/mL] | CC50 (in vitro) [nM] | EC50 (HIV-1 (IIIB); [1]) [nM] | solubility thermodynamic (physchem) [µg/mL] | CC50 at 5 days (in vitro) [nM]
1 | CC1=NO[C@@]2(CC[C@H](C)N3C[C@H]2n2cc(C(=O)NCc4ccc(F)cc4F)c(=O)c(OCOC(=O)CC(C)(C)c4c(CC(=O)N[C@@H](CC(=O)O)C(=O)O)cc(C)cc4OP(=O)(O)O)c2C3=O)C1 [Compound 43, (2-(2-(4-((((3′S,5S,7′R)-10′-((2,4-difluorobenzyl)carbamoyl)-3,3′-dimethyl-1′,11′-dioxo-1′,4′,5′,11′-tetrahydro-3′H,4H,7′H-spiro[isoxazole-5,6′-[2,7]methanopyrido[1,2-a][1,4]diazonin]-12′-yl)oxy)methoxy)-2-methyl-4-oxobutan-2-yl)-5-methyl-3-(phosphonooxy)phenyl)acetyl)-L-aspartic acid] | – | – | 30700 | 2.64 | 5280 (≈ 5.5 mM) | –
2 | COC1=NO[C@@]2(CC[C@H](C)N3C[C@H]2n2cc(C(=O)NCc4ccc(F)cc4F)c(=O)c(OCOC(=O)OCC4(COP(=O)(O)O)CCC4)c2C3=O)C1 [Compound 48, (((3′S,5S,7′R)-10′-((2,4-difluorobenzyl)carbamoyl)-3-methoxy-3′-methyl-1′,11′-dioxo-1′,4′,5′,11′-tetrahydro-3′H,4H,7′H-spiro[isoxazole-5,6′-[2,7]methanopyrido[1,2-a][1,4]diazonin]-12′-yl)oxy)methyl ((1-((phosphonooxy)methyl)cyclobutyl)methyl) carbonate] | 3.82 | 4920 (≈ 6.51 mM) | – | – | – | 15700
3 | CC1=NO[C@@]2(CC[C@H](C)N3C[C@H]2n2cc(C(=O)NCc4ccc(F)cc4F)c(=O)c(OCOC(=O)OCC4(COP(=O)(O)O)COC(=O)N4C)c2C3=O)C1 (stereo partly drawn) [Compound 55, (((3′S,5S,7′R)-10′-((2,4-difluorobenzyl)carbamoyl)-3,3′-dimethyl-1′,11′-dioxo-1′,4′,5′,11′-tetrahydro-3′H,4H,7′H-spiro[isoxazole-5,6′-[2,7]methanopyrido[1,2-a][1,4]diazonin]-12′-yl)oxy)methyl ((3-methyl-2-oxo-4-((phosphonooxy)methyl)oxazolidin-4-yl)methyl) carbonate] | 2.5 | 5520 (≈ 7.05 mM) | – | – | – | 12900
4 | CC1=NO[C@@]2(CC[C@H](C)N3C[C@H]2n2cc(C(=O)NCc4ccc(F)cc4F)c(=O)c(OCOC(=O)OCC4(COP(=O)(O)O)COC4)c2C3=O)C1 [Compound 56, (((3′S,5S,7′R)-10′-((2,4-difluorobenzyl)carbamoyl)-3,3′-dimethyl-1′,11′-dioxo-1′,4′,5′,11′-tetrahydro-3′H,4H,7′H-spiro[isoxazole-5,6′-[2,7]methanopyrido[1,2-a][1,4]diazonin]-12′-yl)oxy)methyl ((3-((phosphonooxy)methyl)oxetan-3-yl)methyl) carbonate] | 2.4 | 3560 (≈ 4.81 mM) | – | – | – | 12800
5 | CC1=NO[C@@]2(CC[C@H](C)N3C[C@H]2n2cc(C(=O)NCc4ccc(F)cc4F)c(=O)c(OCOC(=O)CC(C)(C)c4c(CC(=O)N5CCC[C@@H]5C(=O)O)cc(C)cc4OP(=O)(O)O)c2C3=O)C1 [Compound 57, (2-(2-(4-((((3′S,5S,7′R)-10′-((2,4-difluorobenzyl)carbamoyl)-3,3′-dimethyl-1′,11′-dioxo-1′,4′,5′,11′-tetrahydro-3′H,4H,7′H-spiro[isoxazole-5,6′-[2,7]methanopyrido[1,2-a][1,4]diazonin]-12′-yl)oxy)methoxy)-2-methyl-4-oxobutan-2-yl)-5-methyl-3-(phosphonooxy)phenyl)acetyl)-D-proline] | – | – | 15000 | 2.55 | 5460 (≈ 5.79 mM) | –
6 | CC1=NO[C@@]2(CC[C@H](C)N3C[C@H]2n2cc(C(=O)NCc4ccc(F)cc4F)c(=O)c(OCOC(=O)CC(C)(C)c4c(CC(=O)N5CCOCC5)cc(C)cc4OP(=O)(O)O)c2C3=O)C1 [Compound 58, (((3′S,5S,7′R)-10′-((2,4-difluorobenzyl)carbamoyl)-3,3′-dimethyl-1′,11′-dioxo-1′,4′,5′,11′-tetrahydro-3′H,4H,7′H-spiro[isoxazole-5,6′-[2,7]methanopyrido[1,2-a][1,4]diazonin]-12′-yl)oxy)methyl 3-methyl-3-(4-methyl-2-(2-morpholino-2-oxoethyl)-6-(phosphonooxy)phenyl)butanoate] | – | – | 29000 | 5.78 | 4640 (≈ 5.08 mM) | –

More lines, main results first:

Row | EC50 (HIV-1 (IIIB); [2]) [nM] | solubility thermodynamic at 24 h (physchem) [µg/mL] | Compound | CC50 (in vitro) [nM] | EC50 (HIV-1 (IIIB); [1]) [nM] | solubility thermodynamic (physchem) [µg/mL] | CC50 at 5 days (in vitro) [nM]
7 | 1.8 | 4440 (≈ 6.01 mM) | CC1=NO[C@@]2(CC[C@H](C)N3C[C@H]2n2cc(C(=O)NCc4ccc(F)cc4F)c(=O)c(OCOC(=O)O[C@H]4CCCC[C@@H]4OP(=O)(O)O)c2C3=O)C1 [Compound 44, (((3′S,5S,7′R)-10′-((2,4-difluorobenzyl)carbamoyl)-3,3′-dimethyl-1′,11′-dioxo-1′,4′,5′,11′-tetrahydro-3′H,4H,7′H-spiro[isoxazole-5,6′-[2,7]methanopyrido[1,2-a][1,4]diazonin]-12′-yl)oxy)methyl ((1S,2S)-2-(phosphonooxy)cyclohexyl) carbonate] | – | – | – | 13500
8 | 1.73 | 5320 (≈ 7.21 mM) | CC1=NO[C@@]2(CC[C@H](C)N3C[C@H]2n2cc(C(=O)NCc4ccc(F)cc4F)c(=O)c(OCOC(=O)O[C@@H]4CCCC[C@H]4OP(=O)(O)O)c2C3=O)C1 [Compound 45, (((3′S,5S,7′R)-10′-((2,4-difluorobenzyl)carbamoyl)-3,3′-dimethyl-1′,11′-dioxo-1′,4′,5′,11′-tetrahydro-3′H,4H,7′H-spiro[isoxazole-5,6′-[2,7]methanopyrido[1,2-a][1,4]diazonin]-12′-yl)oxy)methyl ((1R,2R)-2-(phosphonooxy)cyclohexyl) carbonate] | – | – | – | 11400
9 | 2.51 | 4850 (≈ 6.69 mM) | CC1=NO[C@@]2(CC[C@H](C)N3C[C@H]2n2cc(C(=O)NCc4ccc(F)cc4F)c(=O)c(OCOC(=O)O[C@H]4CCC[C@@H]4OP(=O)(O)O)c2C3=O)C1 [Compound 46, (((3′S,5S,7′R)-10′-((2,4-difluorobenzyl)carbamoyl)-3,3′-dimethyl-1′,11′-dioxo-1′,4′,5′,11′-tetrahydro-3′H,4H,7′H-spiro[isoxazole-5,6′-[2,7]methanopyrido[1,2-a][1,4]diazonin]-12′-yl)oxy)methyl ((1S,2S)-2-(phosphonooxy)cyclopentyl) carbonate] | – | – | – | 15100
10 | 2.22 | 4860 (≈ 6.57 mM) | CC1=NO[C@@]2(CC[C@H](C)N3C[C@H]2n2cc(C(=O)NCc4ccc(F)cc4F)c(=O)c(OCOC(=O)OCC4(COP(=O)(O)O)CCC4)c2C3=O)C1 [Compound 47, (((3′S,5S,7′R)-10′-((2,4-difluorobenzyl)carbamoyl)-3,3′-dimethyl-1′,11′-dioxo-1′,4′,5′,11′-tetrahydro-3′H,4H,7′H-spiro[isoxazole-5,6′-[2,7]methanopyrido[1,2-a][1,4]diazonin]-12′-yl)oxy)methyl ((1-((phosphonooxy)methyl)cyclobutyl)methyl) carbonate] | – | – | – | 11200
11 | 4.17 | 4890 (≈ 6.75 mM) | CC1=NO[C@@]2(CC[C@H](C)N3C[C@H]2n2cc(C(=O)NCc4ccc(F)cc4F)c(=O)c(OCOC(=O)OC[C@@H]4C[C@@H]4COP(=O)(O)O)c2C3=O)C1 [Compound 49, (((3′S,5S,7′R)-10′-((2,4-difluorobenzyl)carbamoyl)-3,3′-dimethyl-1′,11′-dioxo-1′,4′,5′,11′-tetrahydro-3′H,4H,7′H-spiro[isoxazole-5,6′-[2,7]methanopyrido[1,2-a][1,4]diazonin]-12′-yl)oxy)methyl (((1R,2S)-2-((phosphonooxy)methyl)cyclopropyl)methyl) carbonate] | – | – | – | 23300
12 | 2 | 4400 (≈ 5.95 mM) | CC1=NO[C@@]2(CC[C@H](C)N3C[C@H]2n2cc(C(=O)NCc4ccc(F)cc4F)c(=O)c(OCOC(=O)O[C@H]4CCCC[C@H]4OP(=O)(O)O)c2C3=O)C1 [Compound 51, (((3′S,5S,7′R)-10′-((2,4-difluorobenzyl)carbamoyl)-3,3′-dimethyl-1′,11′-dioxo-1′,4′,5′,11′-tetrahydro-3′H,4H,7′H-spiro[isoxazole-5,6′-[2,7]methanopyrido[1,2-a][1,4]diazonin]-12′-yl)oxy)methyl ((1S,2R)-2-(phosphonooxy)cyclohexyl) carbonate] | – | – | – | 21200
13 | 4.96 | 4680 (≈ 6.22 mM) | CC1=NO[C@@]2(CC[C@H](C)N3C[C@H]2n2cc(C(=O)NCc4ccc(F)cc4F)c(=O)c(OCOC(=O)O[C@H]4CCCC[C@H]4COP(=O)(O)O)c2C3=O)C1 [Compound 53, (((3′S,5S,7′R)-10′-((2,4-difluorobenzyl)carbamoyl)-3,3′-dimethyl-1′,11′-dioxo-1′,4′,5′,11′-tetrahydro-3′H,4H,7′H-spiro[isoxazole-5,6′-[2,7]methanopyrido[1,2-a][1,4]diazonin]-12′-yl)oxy)methyl ((1S,2S)-2-((phosphonooxy)methyl)cyclohexyl) carbonate] | – | – | – | 35700
14 | 9.29 | 5280 (≈ 7.29 mM) | CC1=NO[C@@]2(CC[C@H](C)N3C[C@H]2n2cc(C(=O)NCc4ccc(F)cc4F)c(=O)c(OCOC(=O)O[C@@H]4CC[C@H](OP(=O)(O)O)C4)c2C3=O)C1 [Compound 54, (((3′S,5S,7′R)-10′-((2,4-difluorobenzyl)carbamoyl)-3,3′-dimethyl-1′11′-dioxo-1′,4′,5′,11′-tetrahydro-3′H,4H,7′H-spiro[isoxazole-5,6′-[2,7]methanopyrido[1,2-a][1,4]diazonin]-12′-yl)oxy)methyl ((cis)-3-(phosphonooxy)cyclopentyl) carbonate] | – | – | – | ≥ 50000
